Like-named read-outs stand apart in the source and are kept apart here.
What was measured:
[1] = Phase I metabolic stability assay; details: human
Procedure: (§1) For this purpose, we used a microsomal stability assay that is a good predictor for phase I metabolic stability.[50]
(§2) Metabolic stability under oxidative conditions was determined by LCMS-based measuring of
(§3) degradation of compounds at 3 µM in human and murine liver microsomes over 60 minutes at 37 °C
(§4) Calculating the compound half-life t1/2, the in vitro intrinsic clearance CLint is

BT-474 = assay: Cell viability assay (CellTiter-Glo); assay type: cell-based; details: Homo sapiens, read-out: Cell viability assay EC50
Procedure: Cell Culture and Viability Assay
(§5) analysis, cells were plated on day 0 into white 384-well cell culture plates (Greiner Bio-One) using a
(§6) Multidrop reagent dispenser (Thermo) at cell numbers that ensure linear and optimal luminescent
(§7) signal intensity (AN3-CA: 800 cells/well; BT-474: 400 cells/well; Dan-G: 400 cells/well; HPAF-II: 400
(§8) cells/well). Then the cells were incubated for 24 h in a humidified atmosphere at 37 °C/5 % CO2. The
(§9) cells were treated with inhibitors in serial dilutions ranging from 30 µM down to 0.1 nM using an Echo
(§10) 520 acoustic liquid handler (Labcyte Inc.). Cell viability was analysed on day 5 using the CellTiter-Glo
(§11) assay (Promega) as per manufacturer’s instructions. Luminescence signal was recorded by an EnVision
(§12) Multilabel 2104 Plate Reader (PerkinElmer) with 500 ms integration time. All data were normalized to
(§13) the plate positive control (30 µM staurosporine) and negative control (DMSO). Finally, the data was
(§14) processed with the Quattro Software Suite using a four parameter logistic model. As a quality control,
(§15) the Z’-factor was calculated from 16 positive and negative control values. Only assay results showing
(§16) a Z’-factor ≥ 0.5 were used for further analysis. All experimental points were measured in duplicates
(§17) for each plate and were replicated in at least three times.

MCF-7 = assay: Cell viability assay (CellTiter-Glo); assay type: cell-based; details: Homo sapiens, MCF7, 120 h, read-out: Cell viability assay EC50
Procedure: Cell Culture and Viability Assay
as §5, §6, §7, §8, §9, §10, §11, §12, §13, §14, §15, §16, §17

ZR-75-1 = assay: Cell viability assay (CellTiter-Glo); assay type: cell-based; details: Homo sapiens, read-out: Cell viability assay EC50
Procedure: Cell Culture and Viability Assay
as §5, §6, §7, §8, §9, §10, §11, §12, §13, §14, §15, §16, §17

T47D = assay: Cell viability assay (CellTiter-Glo); assay type: cell-based; details: Homo sapiens, 120 h, read-out: Cell viability assay EC50
Procedure: Cell Culture and Viability Assay
as §5, §6, §7, §8, §9, §10, §11, §12, §13, §14, §15, §16, §17

KU-19-19 = assay: Cell viability assay (CellTiter-Glo); assay type: cell-based; details: Homo sapiens, read-out: Cell viability assay EC50
Procedure: Cell Culture and Viability Assay
as §5, §6, §7, §8, §9, §10, §11, §12, §13, §14, §15, §16, §17

AN3CA = assay: Cell viability assay (CellTiter-Glo); assay type: cell-based; details: Homo sapiens, AN3-CA, 120 h, read-out: Cell viability assay EC50
Procedure: Cell Culture and Viability Assay
as §5, §6, §7, §8, §9, §10, §11, §12, §13, §14, §15, §16, §17

full-length Akt (Akt^wt) [2] = target: T1, full-length Akt (Akt^wt) (Homo sapiens, UniProt P31749); assay: Kinetic characterization by time-dependent IC50 measurements; assay type: biochemical; details: from time-dependent IC50
T1 sequence (P31749 whole entry): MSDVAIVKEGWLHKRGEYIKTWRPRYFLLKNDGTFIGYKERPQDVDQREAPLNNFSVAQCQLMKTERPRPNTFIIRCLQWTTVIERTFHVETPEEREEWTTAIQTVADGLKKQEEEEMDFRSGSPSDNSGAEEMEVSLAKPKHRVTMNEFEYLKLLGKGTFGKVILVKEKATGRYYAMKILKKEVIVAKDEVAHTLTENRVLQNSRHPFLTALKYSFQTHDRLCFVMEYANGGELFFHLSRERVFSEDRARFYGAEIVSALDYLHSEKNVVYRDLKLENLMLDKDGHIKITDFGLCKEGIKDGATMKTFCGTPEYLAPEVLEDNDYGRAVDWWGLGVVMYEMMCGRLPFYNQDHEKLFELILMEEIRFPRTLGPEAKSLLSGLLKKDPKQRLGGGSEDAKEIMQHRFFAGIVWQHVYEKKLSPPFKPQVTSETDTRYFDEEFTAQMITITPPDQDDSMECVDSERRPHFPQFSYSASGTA
Procedure: (§18) The biochemical inhibitory activity (IC50) was determined with the HTRF KinEASE assay from Cisbio as
(§19) previously described.1 All reagents for HTRF experiments were purchased from Cisbio Bioassays,
(§20) France. The measurements were analyzed using the Quattro Software Suite for IC50-determination.
(§21) Time-dependent IC50-measurements were performed as described. Briefly, IC50 values were
(§22) determined for twelve different incubation times and afterwards plotted versus accordingly. Data was
(§23) analyzed according to literature procedure.2

full-length Akt (Akt^wt) [3] = target: T1, full-length Akt (Akt^wt); assay: HTRF KinEASE activity-based assay, IC50 determination; assay type: biochemical; details: for IC50: HTRF KinEASE
Procedure: as §18, §19, §20, §21, §22, §23

in vitro = details: human, microsomes
Procedure: as §1, §2, §3, §4

[4] = 120 h, KU-19-19 (bladder), day 5

half-life at 1 h, 3 µM ([1]; liver microsomes) | microsomal CLint at 3 µM ([1]; liver microsomes) | EC50 (BT-474; 120 h, BT-474 (breast), day 5) | EC50 (MCF-7; MCF-7 (breast), day 5) | EC50 (T47D; T47D (breast), day 5) | Ki (full-length Akt (Akt^wt) [2]) | kinact (full-length Akt (Akt^wt) [2]) | kinact/KI (full-length Akt (Akt^wt) [2]) | IC50 (full-length Akt (Akt^wt) [3]) | Compound | EC50 (ZR-75-1; 120 h, ZR-75-1 (breast), day 5) | EC50 (KU-19-19; [4]) | EC50 (AN3CA; AN3CA (endometrium), day 5) | other results
33 min | 14 µL/min/mg | 1600 ± 450 nM | 555 nM |  |  |  |  |  | NC1(C(=O)N[C@@H](CCO)c2ccc(Cl)cc2)CCN(c2ncnc3[nH]ccc23)CC1 [Capivasertib, reference compound] |  |  |  | 
 |  | 623 ± 134 nM | 153 ± 9 nM | 127 ± 40 nM |  |  |  |  | COc1cccc2c1C(=O)c1c(O)c3c(c(O)c1C2=O)C[C@@](O)(C(=O)CO)C[C@@H]3O[C@H]1C[C@H](N)[C@H](O)[C@H](C)O1 [Doxorubicin, reference compound] | 100 ± 26 nM | 72 ± 8 nM | 30 ± 9 nM | 
 |  |  |  |  |  |  |  |  | C=CC(=O)Nc1ccc2[nH]c(=O)n(C3CCN(Cc4ccc(-c5nc6cc[nH]c(=O)c6cc5-c5ccccc5)cc4)CC3)c2c1 [compound 1, borussertib] |  |  |  | half-life at 1 h, 3 µM ([1]; microsomes): 99 min; microsomal CLint at 3 µM ([1]; microsomes): 5 µL/min/mg; EC50 (KU-19-19; KU-19-19, 120 h): 7770 ± 641 nM; EC50 (BT-474; BT-474, 120 h): 373 ± 54 nM; EC50 (MCF-7): 277 ± 90 nM
 |  | 5210 ± 1890 nM | 2840 ± 685 nM | 1360 ± 454 nM | 362 ± 74 nM | 0.0007 s⁻¹ | 2000 ± 1000 M⁻¹ s⁻¹ | 285 ± 65 nM | C=CC(=O)Nc1ccc(C(=O)NC2CCN(Cc3ccc(-c4nc5cc[nH]c(=O)c5cc4-c4ccccc4)cc3)CC2)cc1 [30c] | 151 ± 47 nM |  | 3470 ± 1690 nM | 
 |  | 2270 ± 700 nM | 1020 ± 621 nM | 41 ± 19 nM | 27.2 ± 4.2 nM | 0.0023 s⁻¹ | 85000 ± 18000 M⁻¹ s⁻¹ | 10.8 ± 2.5 nM | C=CC(=O)Nc1ccccc1C(=O)NC1CCN(Cc2ccc(-c3nc4cc[nH]c(=O)c4cc3-c3ccccc3)cc2)CC1 [30a] | 22 ± 7 nM | 5540 ± 1510 nM | 1330 ± 60 nM | 
 |  |  |  | 2110 ± 49 nM | 33 ± 2.4 nM | 0.000833 s⁻¹ | 25000 ± 5000 M⁻¹ s⁻¹ | 18.1 ± 4.9 nM | CN(C)C/C=C/C(=O)Nc1ccc2[nH]c(=O)n(C3CCN(Cc4ccc(-c5nc6cc[nH]c(=O)c6cc5-c5ccccc5)cc4)CC3)c2c1 [24c] | 427 ± 23 nM | > 30000 nM |  | fold loss in inhibitory activity (IC50) compared to 1 (full-length Akt (Akt^wt) [3]): 20 fold
 |  | 1960 ± 391 nM | 2440 ± 1020 nM | 546 ± 87 nM | 98.6 ± 10 nM | 0.00142 s⁻¹ | 14000 ± 2000 M⁻¹ s⁻¹ | 52.8 ± 16.3 nM | C=CC(=O)Nc1ccc(C(=O)NC2CCN(Cc3ccc(-c4nc5cc[nH]c(=O)c5cc4-c4ccccc4)cc3)CC2)c(F)c1 [30d] | 73 ± 25 nM | 6070 ± 1100 nM | 1310 ± 158 nM | 
347 min | 1 µL/min/mg | 1680 ± 316 nM |  |  |  |  |  |  | NC1(c2ccc(-c3nc4ccn5c(=O)[nH]nc5c4cc3-c3ccccc3)cc2)CCC1 [MK-2206, reference compound] | 63 ± 21 nM | 7050 ± 421 nM |  | 
 |  | 4020 ± 912 nM | 2200 ± 125 nM | 1900 ± 578 nM | 327 ± 27 nM | 0.00118 s⁻¹ | 4000 ± 1000 M⁻¹ s⁻¹ | 192 ± 45 nM | C=CC(=O)Nc1cccc(CNC2CCN(Cc3ccc(-c4nc5cc[nH]c(=O)c5cc4-c4ccccc4)cc3)CC2)c1 [compound 32] | 384 ± 62 nM | 6760 ± 1460 nM | 3290 ± 298 nM | 
39 min | 12 µL/min/mg | 1100 ± 212 nM | 1190 ± 518 nM | 183 ± 52 nM | 39.3 ± 6.6 nM | 0.00147 s⁻¹ | 38000 ± 7000 M⁻¹ s⁻¹ | 14 ± 6.1 nM | C=CC(=O)Nc1ccc(C(=O)NC2CCN(Cc3ccc(-c4nc5cc[nH]c(=O)c5cc4-c4ccccc4)cc3)CC2)s1 [30f] | 33 ± 9 nM | 3060 ± 848 nM | 879 ± 223 nM | 
39 min | 12 µL/min/mg | 621 ± 85 nM | 224 ± 88 nM | 179 ± 30 nM | 7.6 ± 1.1 nM | 0.0013 s⁻¹ | 168000 ± 25000 M⁻¹ s⁻¹ | 3.7 ± 0.7 nM | C=CC(=O)Nc1cc(Br)cc(C(=O)NC2CCN(Cc3ccc(-c4nc5cc[nH]c(=O)c5cc4-c4ccccc4)cc3)CC2)c1 [30e] | 10 ± 3 nM | 6440 ± 1240 nM | 568 ± 106 nM | 
 |  | 4620 ± 1060 nM | 1220 ± 58 nM | 832 ± 81 nM |  |  |  |  | C=CC(=O)Nc1ccc(N2CCN(Cc3ccc(-c4nc5cc[nH]c(=O)c5cc4-c4ccccc4)cc3)CC2)cc1 [compound 31] | 116 ± 16 nM |  | 3610 ± 1290 nM | 

Compound | half-life at 1 h, 3 µM ([1]; liver microsomes) | microsomal CLint at 3 µM ([1]; liver microsomes) | EC50 (BT-474; 120 h, BT-474 (breast), day 5) | EC50 (MCF-7; MCF-7 (breast), day 5) | EC50 (T47D; T47D (breast), day 5) | Ki (full-length Akt (Akt^wt) [2]) | kinact (full-length Akt (Akt^wt) [2]) | kinact/KI (full-length Akt (Akt^wt) [2]) | IC50 (full-length Akt (Akt^wt) [3]) | EC50 (ZR-75-1; 120 h, ZR-75-1 (breast), day 5) | EC50 (KU-19-19; [4]) | EC50 (AN3CA; AN3CA (endometrium), day 5) | other results
C=CC(=O)Nc1cc2c(cc1Cl)[nH]c(=O)n2C1CCN(Cc2ccc(-c3nc4cc[nH]c(=O)c4cc3-c3ccccc3)cc2)CC1 [24a] |  |  | 259 ± 68 nM | 138 ± 81 nM | 25 ± 7 nM |  |  |  | 1.2 ± 0.3 nM | 2 nM | 2310 ± 908 nM | 159 ± 70 nM | half-life at 1 h, 3 µM (in vitro): 87 min; microsomal CLint at 3 µM (in vitro): 5 µL/min/mg
CC(C)NC[C@@H](C(=O)N1CCN(c2ncnc3c2[C@H](C)C[C@H]3O)CC1)c1ccc(Cl)cc1 [Ipatasertib, reference compound] | 39 min | 12 µL/min/mg |  |  |  |  |  |  |  |  |  |  | EC50 (ZR-75-1; ZR-75-1, 120 h): 219 ± 83 nM; EC50 (T47D; T47D): 443 ± 6 nM; EC50 (BT-474; BT-474, 120 h): 2370 ± 745 nM; EC50 (AN3CA): 925 ± 457 nM; EC50 (MCF-7): 5040 ± 1830 nM

Source: publication PMC6430017, “Structural and chemical insights into the covalent-allosteric inhibition of the protein kinase Akt” (Chemical Science, 2019)
